Test results reported in patent US6096711A, “Hsp72 induction and applications” (priority 1998, dated 2000).
Non-standard residues stand in square brackets, D forms with d. Residues, ends and D or L forms follow the SMILES beside them. *: point of attachment. Nle = CCCC[C@H](N)C(=O)O; Cbz = O=C(OCc1ccccc1)*

Tests used:
JNK [1] = experiment: JNK assay in U937 cells; type: cell-based, human; design: JNK activation by the compound itself: dose or concentration left out as unconfirmed
Description: (§1) U937 human lymphoid tumor cells were grown in RPMI-1640 medium with 10% fetal bovine serum and were used for experiments while in the mid log-phase (3-7.105 cells/ml). 293 human cells were grown in DMEM medium with 10% fetal bovine serum and were used in transient transfection experiments while at 40% of confluence. MG132 was purchased from Biomol Res Lab, Inc, PA. aLLN was purchased from Sigma, MO. MG132 analogs were synthesized and purified by HPLC. Anti-hsp72 antibody (SPA810) was from StressGene Biotechnologies Corp (Canada), anti-p53 antibody (PAb1801) was from SantaCruz Biotechnology, Inc, Calif.
JNK activity was assayed using GST-c-Jun protein as a substrate after immunoprecipitation with anti-JNK1 antibodies (sc-474, Santa Cruz Biotechnology, Inc., Calif.), or anti-HA antibody for transfected JNK (Berkley Antibody Company). Briefly, cells were lysed in a buffer containing 20 mM Tris-HCl, pH 7.4, 50 mM NaCl, 2 mM EDTA, 1% Triton X-100, 25 mM b-glycerophosphate, 10 mM NaF, 1 mM Na3VO4, and protease inhibitors (1 mM PMSF and 25 mg/ml each of aprotenin, pepstatin, leupeptin). After immunoprecipitation with anti-JNK1 or anti-HA antibody and protein A-sepharose for 2 h at 4° C. and washing, kinase reaction was carried out in a buffer containing 25 mM HEPES, 10 mM MgCl2, 2 mM DTT, 25 mM b-glycerophosphate, 2 mM Na3 VO4 and 25 mCi 32P-g-ATP at 37° C. for 10 min. Samples were then subjected to SDS-PAGE followed by transfer to a nitrocellulose membrane and autoradiography. This membrane was later used for immunoblot with anti-JNK1 antibody to ensure that equal amounts of the kinase were immunoprecipitated. p38 kinase activity was determined by Western blot with polyclonal antibody (New England Biolabs, MA) specifically recognizing the phosphorylated (active) form of p38. Later the same blot was treated with anti-p38 antibody (New England Biolabs, Mass.) to assure equal loading of the kinase on different lanes.

JNK [2] = experiment: JNK activation by heat shock in IMR90 cells pretreated with MG132; type: cell-based, Human
Description: (§2) Young and old cells were incubated with either […] of MG132 for 5 hours, washed with PBS and incubated in a fresh medium for an additional 12 hours.
JNK activity was assayed using GST-c-Jun protein as a substrate after immunoprecipitation with anti-JNK1 antibodies (sc-474, Santa Cruz Biotechnology, Inc., CA). Briefly, cells were lysed in a buffer containing 20 mm Tris-HCl, pH 7.4, 50 mm NaCl, 2 mm EDTA, 1% Triton X-100, 25 mm b-glycerophosphate, 10 mm NaF, 1 mm Na3VO4, and protease inhibitors (1 mm PMSF and 25 mg/ml each of aprotenin, pepstatin, leupeptin). After immunoprecipitation with anti-JNK1 antibody and protein A-sepharose for 2 h at 4° C. and washing, kinase reaction was carried out in a buffer containing 25 mm HEPES, 10 mm MgCl2, 2 mm DTT, 25 mm b-glycerophosphate, 2 mm Na3VO4 and 25 mCi 32P-g-ATP at 37° C. for 10 min. Then the samples were subjected to SDS-PAGE followed by transfer to a nitrocellulose membrane and autoradiography. This membrane was later used for immunoblot with anti-JNK1 antibody to ensure that equal amounts of the kinase were immunoprecipitated.

[3] = system: U937 human lymphoid tumor cells; experiment: Apoptosis / cell death of U937 cells; type: cell-based; design: induction of apoptosis by the compound itself: dose or concentration left out as unconfirmed
Description: as §1
PARP degradation was followed by Western blotting with anti-PARP monoclonal antibodies (C2-10, G. Poirier, Montreal, Canada). Apoptosis of 293 cells was detected by cleavage of a truncated form of Ul-70 kDa protein d12 (Romac, J. M. J. et al., Mol Cell Biol 14: 4662-4670 (1994)). Cells were transfected by calcium phosphate method with a plasmid encoding d12 tagged with T7 epitope alone or together with a dominant-negative mutant forms of SEK1 (K/R) or c-jun (TAM67). After 48 hours cells were either treated with […] MG132 or subjected to heat shock at 45° C. for 15 min. After additional 24 hours cells were lysed and cleavage of d12 was detected by Western blot with anti-T7 epitope antibody.

Hsp72 [4] = experiment: Hsp72 induction in U937 cells; type: cell-based, human; design: accumulation of Hsp72: dose or concentration left out as unconfirmed; settings: for levels of Hsp72: incubation of U937 cells with the compound
Description: as §1

[5] = system: Human lung fibroblasts IMR90; experiment: Heat-induced apoptosis in IMR90 cells; type: cell-based; settings: young and old IMR90 cells pretreated with MG132
Description: as §2
Young and old cells were subjected to heat shock at 45° C. for different time periods followed by incubation at 37° C. After 24 hours cells were stained with Hoechst 33342 according to manufacturer's specifications.

Hsp72 [6] = experiment: Hsp72 induction in young and old IMR90 cells; type: cell-based, Human; settings: compared with mild heat shock of young cells
Description: Human lung fibroblasts IMR90 which underwent either 12-17 divisions ("young" cells) or 62-67 divisions ("old" cells) were grown in MEM medium supplemented with 20% bovine fetal serum and 2mM glutamine. The cells were seeded at a density of 1.105 cells/35 mm plate and grown at 37° C. in an atmosphere of 95% air and 5% CO2. Cultures were split when cell density reached confluency. MG132 was purchased from Biomol Res Lab, Inc, PA. Anti-Hsp72 antibody (SPA810) was from StressGene Biotechnologies Corp (Canada).
as §2

Hsp27 = Hsp27 induction in U937 cells; type: cell-based, human; settings: incubation of U937 cells with MG132
Description: as §1

Hsp40 = Hsp40 induction in U937 cells; type: cell-based, human; settings: incubation of U937 cells with MG132
Description: as §1

[7] = system: chymotrypsin-like activity of the proteasome; settings: cited from earlier work; for Ki: slow binding inhibitors, Vinitsky et al.

CC(C)C[C@@H](C=O)NC(=O)[C@H](CC(C)C)NC(=O)[C@H](CC(C)C)NC(=O)OCc1ccccc1 [MG132] (Cbz-Leu-Leu-Leu-aldehyde)
JNK activation by the compound itself (JNK [1]; followed by withdrawal): activated JNK only temporally | JNK activation by severe heat shock (JNK [1]; pretreated versus untreated U937 cells): much lesser activation | activation of JNK by TNF (JNK [1]; pretreatment with MG132): strongly suppressed | activation of JNK by ethanol (JNK [1]; pretreatment with MG132): strongly suppressed | JNK activation by heat shock of various severity (JNK [2]): strongly suppressed in both young and old cells | induction of apoptosis by the compound itself ([3]; followed by withdrawal): insufficient to induce apoptosis | effect of long incubation on JNK and apoptosis ([3]; long incubation of U937 cells): prolonged activation of JNK leading to apoptosis | TNF-induced apoptosis ([3]; pretreatment with MG132): did not rescue cells from TNF-induced apoptosis and even potentiated it | cell death caused by ethanol ([3]; pretreatment with MG132): suppressed cell death caused by ethanol | extent of cell death after heat shock ([3]; pretreatment with MG132, about 40% without pretreatment): negligible level | accumulation of Hsp72 (Hsp72 [4]; after several hours of recovery): strong accumulation of Hsp72 | levels of Hsp72 (Hsp72 [4]): dramatically increase | protection from heat-induced apoptosis [5]: protected from apoptosis | Hsp72 levels induced (Hsp72 [6]): exceeded those triggered in young cells by a mild heat shock | induction of Hsp27 (Hsp27): appeared to be induced | induction of Hsp40 (Hsp40): appeared to be induced

CC(C)CC(C=CS(C)(=O)=O)NC(=O)C(CC(C)C)NC(=O)C(CC(C)C)NC(=O)Cc1cc(I)c(O)c([N+](=O)[O-])c1 (centres unmarked) [NIP-L3VS]
levels of Hsp72 (Hsp72 [4]): dramatically increase

CC(C)C[C@@H](C=O)NC(=O)CNC(=O)CNC(=O)OCc1ccccc1 [Z-Gly-Gly-Leu-H] (Cbz-Gly-Gly-Leu-aldehyde)
inhibition of the chymotrypsin-like activity of the proteasome ([7]; Orlowski 1990): inhibits the chymotrypsin-like activity of the proteasome

CC(C)C[C@H](NC(=O)OCc1ccccc1)C(=O)N[C@@H](CC(C)C)C(=O)N[C@H](C=O)Cc1ccccc1 [Z-LLF-H, (benzyloxycarbonyl)-Leu-Leu-phenylalaninal] (Cbz-Leu-Leu-Phe-aldehyde)
Ki [7]: 0.46 µM

CC(C)C[C@H](NC(=O)[C@H](CC(C)C)NC(=O)[C@H](CC(C)C)NC(=O)OCc1ccccc1)C(N)=O [Z-LLL-amide] (Cbz-Leu-Leu-Leu-NH2)
levels of Hsp72 (Hsp72 [4]): did not lead to any significant induction

CCOC(=O)C(=O)[C@H](Cc1ccccc1)NC(=O)[C@H](CC(C)C)NC(=O)[C@H](CC(C)C)NC(=O)OCc1ccccc1 [Z-Leu-Leu-Phe-COOEt]
Ki [7]: 53 µM

CCCC[C@@H](C=O)NC(=O)[C@H](CC(C)C)NC(=O)[C@H](CC(C)C)NC(C)=O [aLLN] (Ac-Leu-Leu-[Nle]-aldehyde)
levels of Hsp72 (Hsp72 [4]): dramatically increase

CC(C)[C@H](O)[C@@]12NC(=O)[C@H](C)[C@@H]1OC2=O [lactacystin-β-lacton]
levels of Hsp72 (Hsp72 [4]): dramatically increase
